In the NIST ThermoML archive (doi:10.1021/je400405m):

Assay: wn = mass fraction of the nth substance listed
Conditions: w1 = 0.0516; for surface tension liquid-gas: Maximal bubble pressure; for viscosity / mass density: 101 kPa, Liquid; for viscosity: Capillary tube (Ostwald / Ubbelohde) method; for mass density: Pycnometric method

C1CNCCN1 [piperazine] + O
Conditions	mass density [kg/m3]	surface tension liquid-gas [mN/m]	viscosity [mPa·s]
303.15 K	998.03	68.55	0.948
313.15 K	994.71	66.97	0.75
323.15 K	990.08	65.1	0.616
